Data on 34 molecules can be found in patent US7238697B2, “Pyridylpyrimidines for use as pesticides” (Bayer CropScience AG, priority 2001, dated 2007).

Common to all, as to format: in vivo
The subject of test [1] is larvae of the mustard beetle (Phaedon cochleariae). The experiment in a line: Phaedon larvae test (cabbage leaves dipped). On the procedure: To produce a suitable preparation of active compound, 1 part by weight of active compound is mixed with the stated amounts of solvent and emulsifier, and the concentrate is diluted with emulsifier-containing water to the desired concentration. Cabbage leaves (Brassica oleracea) are treated by being dipped into the preparation of active compound of the desired concentration and are populated with larvae of the mustard beetle (Phaedon cochleariae) while the leaves are still moist. After the desired period of time, the kill in % is determined. 100% means that all beetle larvae have been killed; 0% means that none of the beetle larvae have been killed.

The subject of the next test is Meloidogyne incognita. Kind of test: Meloidogyne test (gall formation on lettuce roots). Particulars: 336 h, after 14 d, read-out: Kill rate in % after 14 d. On the procedure:
To produce a suitable preparation of active compound, 1 part by weight of active compound is mixed with the stated amounts of solvent and emulsifier, and the concentrate is diluted with water to the desired concentration. Vessels are filled with sand, solution of active compound, Meloidogyne incognita egg/larvae suspension and lettuce seeds. The lettuce seeds germinate and the plants develop. On the roots, galls are formed. After the desired period of time, the nematicidal action is determined in % by the gall formation. 100% means that no galls were found; 0% means that the number of galls on the treated plants corresponds to that of the untreated control.

Test [2] relates to thrips (Franklinella occidentalis). Kind of test: Franklinella test (cucumber plants sprayed). Particulars: 1000 ppm. On the procedure: To product a suitable preparation of active compound, 1 part by weight of active compound is mixed with the stated amounts of solvent and emulsifier, and the concentrate is diluted to the desired concentration.
Cucumber plants (Cucumis sativus) which are heavily infested by all stages of thrips (Franklinella occidentalis) are sprayed with a preparation of active compound of the desired concentration.
After the desired period of time, the effect in % is determined. 100% means that all thrips have been killed; 0% means that none of the thrips have been killed.

Test [3] concerns cotton aphid (Aphis gossypii). Kind of test: Aphis gossypii test (cotton leaves dipped). Particulars: 200 ppm. As for the experimental part:
To produce a suitable preparation of active compound, 1 part by weight of active compound is mixed with the stated amounts of solvent and emulsifier, and the concentrate is diluted with emulsifier-containing water to the desired concentration. Cotton leaves (Gossypium hirsutum) which are heavily infested by the cotton aphid (Aphis gossypii) are treated by being dipped into the preparation of active compound of the desired concentration. After the desired period of time, the kill in % is determined. 100% means that all aphids have been killed; 0% means that none of the aphids have been killed.

Test [4] relates to caterpillars of the army worm (Spodoptera frugiperda). Kind of test: Spodoptera frugiperda test (cabbage leaves dipped). Particulars: 500 ppm, solvent 7 parts DMF, emulsifier 2 parts. On the procedure: To produce a suitable preparation of active compound, 1 part by weight of active compound is mixed with the stated amounts of solvent and emulsifier, and the concentrate is diluted with emulsifier-containing water to the desired concentration. Cabbage leaves (Brassica oleracea) are treated by being dipped into the preparation of active compound of the desired concentrated and are populated with caterpillars of the army worm (Spodoptera frugiperda) while the leaves are still moist. After the desired period of time, the kill in % is determined. 100% means that all caterpillars have been killed; 0% means that none of the caterpillars has been killed.

The subject of test [5] is peach aphids (Myzus persicae). Kind of test: Myzus test (cabbage leaves dipped). The following applies: 144 h, after 6 d, read-out: Kill rate in % after 6 d; for pest or weed control at 500 ppm: solvent 7 parts DMF, emulsifier 2 parts (Table D-2). As for the experimental part: To produce a suitable preparation of active compound, 1 part by weight of active compound is mixed with the stated amounts of solvent and emulsifier, and the concentrate is diluted with emulsifier-containing water to the desired concentration. Cabbage leaves (Brassica oleracea) which are heavily infested by peach aphids (Myzus persicae) are treated by being dipped into the preparation of the active compound of the desired concentration. After the desired period of time, the kill in % is determined. 100% means that all aphids have been killed; 0% means that none of the aphids has been killed.

The mark [6] stands for this setting: 500 ppm, solvent 7 parts DMF, emulsifier 2 parts (Table E-2).
Setting [7] is: solvent 30 parts DMF, emulsifier 1 part (Table C-1).
The mark [8] stands for this setting: solvent 7 parts DMF, emulsifier 2 parts (Table C-2).
[9] abbreviates: solvent 30 parts DMF, emulsifier 1 part (Table D-1).

Each structure is given as a SMILES string. Where two headings read alike, the source gives them in different places.

Regarding `CCOC(=O)CSc1nccc(-c2ccc(Cl)cn2)n1` [drawing 443], the “Kill rate in % after 7 d” value in test [1] (setting [6]) was 100%. Regarding `COCCOC(=O)CSc1nccc(-c2ccccn2)n1` [drawing 403], the pest or weed control at 20 ppm in the test with Meloidogyne incognita (setting [7]) was 90%. In the case of `CCOC(=O)CSc1nccc(-c2ccc(CC)cn2)n1` [drawing 411], in the test on Meloidogyne incognita (setting [8]), the pest or weed control at 20 ppm worked out at 90%. For the molecule `O=C(CSc1nccc(-c2ccccn2)n1)N/N=C/c1ccc([N+](=O)[O-])cc1` [drawing 441], in test [1] (1000 ppm, solvent 30 parts DMF, emulsifier 1 part (Table E-1)), the “Kill rate in % after 7 d” value is 100%. `CCOC(=O)CSc1nccc(-c2ccc(C(F)(F)F)cn2)n1` [drawing 442]: in test [1] (setting [6]), the “Kill rate in % after 7 d” value was 100%. For `CCOC(=O)C(C)OC(=O)CSc1nccc(-c2ccccn2)n1` (stereo not shown) [drawing 409], the pest or weed control at 20 ppm in the test on Meloidogyne incognita (setting [8]) worked out at 80%. Turning to `CCOC(=O)CSc1nccc(-c2ccccn2)n1` [drawing 402], the pest or weed control at 20 ppm in the test on Meloidogyne incognita (setting [7]) was determined as 90%. For the molecule `COC(=O)CSc1nc(-c2ccccc2)cc(-c2ccccn2)n1` [drawing 410], the pest or weed control at 20 ppm in the test on Meloidogyne incognita (setting [8]) turned out to be 100%.

As for `CCOC(=O)/C=C/CSc1nccc(-c2ccccn2)n1` [drawing 408], the pest or weed control at 20 ppm with Meloidogyne incognita (setting [7]) worked out at 100%.

Take `COC(=O)CSc1nccc(-c2ccccn2)n1` [drawing 401]: the “Kill rate in % after 7 d” value in test [2] turned out to be 99%. `CCCOC(=O)CSc1nccc(-c2ccccn2)n1` [drawing 399]: the “Kill rate in % after 6 d” value in test [3] is reported as 85%. The same measure, in the same setting: with `O=C(CSc1nccc(-c2ccccn2)n1)OC1CCCCC1` [drawing 400] the figure was 90%. In the case of `CCOC(=O)CSc1nccc(-c2ccc(C(F)(F)F)cn2)n1` [drawing 413], the pest or weed control at 20 ppm in the test with Meloidogyne incognita (setting [8]) was determined as 100%. `CCOC(=O)CSc1nccc(-c2ccc(C)cn2)n1` [drawing 412]: the pest or weed control at 20 ppm with Meloidogyne incognita (setting [8]) was found to be 90%. Regarding `CCOC(=O)CSc1nccc(-c2ccc(C(F)(F)F)cn2)n1` [drawing 446], the “Kill rate in % after 7 d” value in test [4] came out at 100%. Take `CCOC(=O)C1CC1COC(=O)CSc1nccc(-c2ccccn2)n1` (stereo not shown) [drawing 429]: in test [5], the pest or weed control at 500 ppm amounted to 98%. As for `CCOC(=O)CSc1nc(C)cc(-c2ccccn2)n1` [drawing 445], the “Kill rate in % after 7 d” value in test [4] is 100%. As to `CC(=O)NCC(C)OC(=O)CSc1nccc(-c2ccccn2)n1` (stereo not shown) [drawing 433], in test [5], the pest or weed control at 500 ppm turned out to be 95%. On to `COC(=O)CCCSc1nccc(-c2ccccn2)n1` [drawing 405], for which the pest or weed control at 20 ppm with Meloidogyne incognita (setting [7]) stood at 90%. On to `O=C(CSc1nccc(-c2ccccn2)n1)OC1CS(=O)(=O)C1` [drawing 432], for which the pest or weed control at 500 ppm in test [5] was 100%. As to `CC(C)=NNC(=O)CSc1nccc(-c2ccccn2)n1` [drawing 404], in the test with Meloidogyne incognita (setting [7]), the pest or weed control at 20 ppm came to 98%. With `COC(=O)CC(=O)CSc1nccc(-c2ccccn2)n1` [drawing 427], in test [5] (200 ppm, solvent 30 parts DMF, emulsifier 1 part (Table D-1)), the pest or weed control at 200 ppm came out at 95%. Regarding `CC(C)(C)n1nnc(CSc2nccc(-c3ccccn3)n2)n1` [drawing 444], the “Kill rate in % after 7 d” value in test [1] (setting [6]) is 100%. For the molecule `O=C(CSc1nccc(-c2ccccn2)n1)OC1COC1` [drawing 436], in test [5], the pest or weed control at 500 ppm is 95%.

Turning to `CCCOC(=O)CSc1nccc(-c2ccccn2)n1` [drawing 417], the pest or weed control at 1000 ppm in test [5] (setting [9]) is 95%. In the case of `CC(C)(C)n1nnc(CSc2nccc(-c3ccccn3)n2)n1` [drawing 414], the pest or weed control at 20 ppm in the test on Meloidogyne incognita (setting [8]) was 90%. `O=C(O)CSc1nccc(-c2ccccn2)n1` [drawing 424]: the pest or weed control at 1000 ppm in test [5] (setting [9]) was determined as 100%. For `O=C(CSc1nccc(-c2ccccn2)n1)OC1CCCCC1` [drawing 420], the pest or weed control at 1000 ppm in test [5] (setting [9]) turned out to be 100%. Regarding `COC(=O)CSc1nc(-c2ccccn2)cc(-c2ccccn2)n1` [drawing 407], the pest or weed control at 20 ppm with Meloidogyne incognita (setting [7]) is 95%.

Regarding `CCOC(=O)CSc1nccc(-c2ccc(C)cn2)n1` [drawing 440], the pest or weed control at 500 ppm in test [5] was 98%. On to `CC(C)(C)n1nnc(CSc2nccc(-c3ccccn3)n2)n1` [drawing 447], for which, in test [4], the “Kill rate in % after 7 d” value is 100%.

Consider `CCOC(=O)CSc1nccc(-c2ccccn2)n1` [drawing 416], for which the pest or weed control at 1000 ppm in test [5] (setting [9]) is 100%.

Regarding `COC(=O)CSc1nccc(-c2ccccn2)n1` [drawing 398], in test [3], the “Kill rate in % after 6 d” value was found to be 85%. Turning to `COC(=O)CSc1nc(-c2ccccn2)c2cc(Cl)ccc2n1` [drawing 406], in the test on Meloidogyne incognita (setting [7]), the pest or weed control at 20 ppm was 98%.
